Coagulation data for one molecule are collected here from patent publication US20060188573A1, “Composite materials and particles” (priority 2003, published 2006).

In this series the test system is blood. The experiment in a line: Blood compatibility: coagulation. To be noted: 4.0 ml blood added, circulating at 37 degrees C. for 60 minutes in heparin-coated tubes; duplicate. The protocol:
The lipid/polymer hybrid particles have been characterized with respect to coagulation and hemolyse. Briefly, the experiments were carried out as follows:
Coagulation: Solvent/water mixture, with the same ratio used for particle formation, was used as negative control. Other samples were pure polymer, pure lipid, lipid/polymer composite particles and Taxol. Taxol was used as positive control. All experiments were carried out in dublicate.4.0 ml blood were added to each sample before the samples were circulating, at 37 degrees C. for 60 minutes, in tubes with the inside coated with heparin.

For the molecule `CCCCCCCC/C=C\CCCCCCCC(=O)OCC(O)CO` (stereo not shown) [pure lipid, glyceryl-mono-oleate], the coagulation entry was “no coagulation”.
